According to patent US12076307B2, “Compositions for prevention or treatment of acute radiation syndrome and other radiation exposure” (priority 2017, dated 2024):
Where “and” joins values, the source holds several entries; their conditions need not be identical. Identical values can stand only once. Marks after values point to notes of the source that are not given here.

Columns and labels:
[1] = test system: BALB/c mice, 6.11 Gy γ-radiation TBI; experiment: Hematopoietic ARS (H-ARS) CBC time course, 6.11 Gy; assay type: in vivo, mouse
Procedure: For the time course analysis of hematopoietic ARS (H-ARS), female mice were grouped 5 per treatment cohorts; γ-radiation only cohort (positive control) and γ-radiation with EC-18 250 mg/kg cohort. For the analysis of dose effect of EC-18 administration on H-ARS, mice were grouped 8 (5 males and 3 females) per treatment cohorts; γ-radiation only cohort (positive control), γ-radiation with EC-18 50 mg/kg cohort, γ-radiation with EC-18 100 mg/kg cohort, γ-radiation with EC-18 250 mg/kg cohort and γ-radiation with EC-18 100 mg/kg cohort. The whole blood was collected from the orbital sinuses using EDTA-free capillary tubes (Kimble Chase Life Science and Research Products LLC, FL, USA) and collection tubes containing K3E-K3EDTA (Greiner Bio-One International, Kremsmunster, Austria).
The therapeutic effect of EC-18 administration on H-ARS was then evaluated. […] Groups of BALB/c mice (n=5, female for FIG. 32A through FIG. 32E and n=8, 5 male, 3 female for FIG. 32F through FIG. 32J) were exposed to 6.11Gy of γ-radiation and various doses of EC-18 were orally administered once daily to day 15, or remained untreated. FIGS. 32A through 32E show the time course of the white blood cell count (WBC; FIG. 32A), absolute Neutrophil count (ANC; FIG. 32B), absolute Lymphocyte count (ALC; FIG. 32C), platelet count (PLT; FIG. 32D) and red blood cell count (RBC; FIG. 32E) over 15 days, respectively. FIG. 32F through FIG. 32J show the dose effect of EC-18 administration on WBC (FIG. 32F), ANC (FIG. 32G), ALC (FIG. 32H), PLT (FIG. 32I) and BRC (FIG. 32J) on day 15, respectively. ns; not significant,* p<0.05, **p<0.01, *** p<0.005.

Guinea pig = experiment: Antigenicity test; assay type: in vivo; settings: Oral; 2 weeks; 500, 2000 mg/kg; 2000 mg/kg + FCA
Excerpt: Various toxicology studies have been performed. All studies were GLP-compliant unless otherwise noted.

[2] = test system: Pseudomonas aeruginosa K (PAK); experiment: Co-culture of bone marrow-derived monocytes with PAK, CFU; assay type: cell-based; settings: 100 μg/mL 1 hr; PAK MOI 50
Procedure: Structural-Activity Relationship Work of EC-18 To assess the optimal structure of EC-18, structural-activity relationship work was examined. A total of five structural analogs of EC-18 were selected by changing one fatty acid chain structure (red boxes in FIG. 43) and evaluated in bone marrow-derived monocytes co-cultured with Pseudomonas aeruginosa K (PAK). All analogs along with EC-18 were inoculated with PAK at the multiplicity of infection (MOI) of 50 for 30 mins and then, treated for 1 hr at the dosage of 100 μg/mL.
As a measure of […], the colony-forming units (CFUs) from each group were examined.

Balb/c mice, 6.11 Gy TBI = experiment: Dose optimization / pharmacodynamics study in LD70/30 ARS model (40 mice per group)
[3] = EC-18 250 mg/kg daily, n=5 female
[4] = 6.11 Gy, EC-18 50 mg/kg daily from day 1, 30 days
[5] = 6.11 Gy, EC-18 100 mg/kg daily from day 1, 30 days
[6] = 6.11 Gy, EC-18 250 mg/kg daily from day 1, 30 days
[7] = 6.11 Gy, EC-18 500 mg/kg daily from day 1, 30 days

Compound: CCCCC/C=C\C/C=C\CCCCCCCC(=O)OC(COC(C)=O)COC(=O)CCCCCCCCCCCCCCC (centres unmarked) [EC-18, 1-palmitoyl-2-linoleoyl-3-acetylglycerol]
- duration of severe neutropenia [1, 3]: 7.2 ± 1.79 days
- mean first day of neutropenia (ANC<500 cells/μL) [1, 3]: 2.2 ± 1.09 days
- mean nadir of ANC [1, 3]: 20.0±10.00 cells/μL
- reduction of PLT and RBC induced by a single TBI ([1]; oral once daily to day 15): attenuated
- γ-radiation-induced depletion of WBC, ANC and ALC ([1]; oral once daily to day 15): significantly attenuated
- anaphylaxis reaction / antigenicity (Guinea pig): No anaphylaxis reaction
- colony-forming units (CFUs) vs other analogs or control groups [2]: significantly higher
- improvement in survival vs control group (Balb/c mice, 6.11 Gy TBI; 25 mg/kg (so in the source)): 2 fold
- improvement in survival vs control group (Balb/c mice, 6.11 Gy TBI; 250 mg/kg daily, 24-hr delayed): 4 fold
- γ-radiation-induced reduction of RBC and hemoglobin (Balb/c mice, 6.11 Gy TBI; 250 mg/kg, 30 days of observation): significantly prevented
- mean PLT count vs control cohort (Balb/c mice, 6.11 Gy TBI; 250 mg/kg, from 15 days to the last day of observation): higher
- improvement in survival vs control group (Balb/c mice, 6.11 Gy TBI; 500 mg/kg daily, 24-hr delayed): ~4 fold
- Survival time of decedents, Median (Balb/c mice, 6.11 Gy TBI; 6.11 Gy, EC-18 50 mg/kg): 25.5 days
- No. of mice that survived/total (Balb/c mice, 6.11 Gy TBI; [4]): 24/40
- Survivability / Survival (Balb/c mice, 6.11 Gy TBI; [4]): 60%
- Survival time of decedents, Mean ± SEM (Balb/c mice, 6.11 Gy TBI; 6.11 Gy, EC-18 50 mg/kg, 50 mg/kg): 24.3 days and 24.3 ± 1.2 days
- Survival time of decedents, Mean ± SEM (Balb/c mice, 6.11 Gy TBI; 6.11 Gy, EC-18 100 mg/kg): 22.8 ± 1.7 days
- Survival time of decedents, Median (Balb/c mice, 6.11 Gy TBI; 6.11 Gy, EC-18 100 mg/kg): 26.0 days
- No. of mice that survived/total (Balb/c mice, 6.11 Gy TBI; [5]): 27/40
- Survival (Balb/c mice, 6.11 Gy TBI; [5]): 67.5%
- Survival time of decedents, Median (Balb/c mice, 6.11 Gy TBI; 6.11 Gy, EC-18 250 mg/kg): 27.5 days
- No. of mice that survived/total (Balb/c mice, 6.11 Gy TBI; [6]): 34/40
- Survivability / Survival (Balb/c mice, 6.11 Gy TBI; [6]): 85%
- Survival time of decedents, Mean ± SEM (Balb/c mice, 6.11 Gy TBI; 6.11 Gy, EC-18 250 mg/kg, 250 mg/kg): 27.8 days and 27.8 ± 0.4 days
- Survival time of decedents, Median (Balb/c mice, 6.11 Gy TBI; 6.11 Gy, EC-18 500 mg/kg): 19.5 days
- No. of mice that survived/total (Balb/c mice, 6.11 Gy TBI; [7]): 34/40
- Survivability / Survival (Balb/c mice, 6.11 Gy TBI; [7]): 85%
- Survival time of decedents, Mean ± SEM (Balb/c mice, 6.11 Gy TBI; 6.11 Gy, EC-18 500 mg/kg, 500 mg/kg): 20.3 days and 20.3 ± 1.5 days
- radiation-induced depletion of ANC (and WBC) (Balb/c mice, 6.11 Gy TBI; 50 and 250 mg/kg, dose-dependent): significantly attenuated
- Mean of the First Day Of Anemia (HGB <12 g/dL) (±SE) (Balb/c mice, 6.11 Gy TBI; EC-18 50 mg/kg): 10.4 ± 0.7 (5-15)
- Mean of the First Day of Neutropenia (ANC <500 cells/μL) (±SE) (Balb/c mice, 6.11 Gy TBI; EC-18 50 mg/kg): 3.0 ± 0.0 (3-3)
- Mean of the First Day of Thrombocytopenia (PLT <100 × 10^3 cells/μL) (±SE) (Balb/c mice, 6.11 Gy TBI; EC-18 50 mg/kg): 10.0 ± 0.0 (10-10)
- Mean of the First Day of SN (ANC <100 cells/μL) (±SE) (Balb/c mice, 6.11 Gy TBI; EC-18 50 mg/kg, 50 mg/kg): 5.7 ± 0.6 (3-10) days
- Mean Duration of Anemia in Days (±SE) (Balb/c mice, 6.11 Gy TBI; EC-18 50 mg/kg, n=17): 15.0 ± 0.8^b (7-19) Days
- Mean Duration of Neutropenia in Days (±SE) (Balb/c mice, 6.11 Gy TBI; EC-18 50 mg/kg, n=19): 21.0 ± 0.7^b (17-24) Days
- Mean Duration of SN in Days (±SE) (Balb/c mice, 6.11 Gy TBI; EC-18 50 mg/kg, n=19): 11.4 ± 0.9^b (5-19) Days
- Mean Duration of Thrombocytopenia in Days (±SE) (Balb/c mice, 6.11 Gy TBI; EC-18 50 mg/kg, n=19): 12.8 ± 0.8^b (7-17) Days
- Mean of the First Day Of Anemia (HGB <12 g/dL) (±SE) (Balb/c mice, 6.11 Gy TBI; EC-18 100 mg/kg): 11.0 ± 0.5 (5-15)
- Mean of the First Day of Neutropenia (ANC <500 cells/μL) (±SE) (Balb/c mice, 6.11 Gy TBI; EC-18 100 mg/kg): 3.0 ± 0.0 (3-3)
- Mean of the First Day of Thrombocytopenia (PLT <100 × 10^3 cells/μL) (±SE) (Balb/c mice, 6.11 Gy TBI; EC-18 100 mg/kg): 10.0 ± 0.0 (10-10)
- Mean of the First Day of SN (ANC <100 cells/μL) (±SE) (Balb/c mice, 6.11 Gy TBI; EC-18 100 mg/kg, 100 mg/kg): 5.1 ± 0.5 (3-10) days
